Laboratory results as given in the NIST ThermoML archive (doi:10.1016/j.tca.2015.02.014).
Numbers after ± are expanded uncertainties.

What was measured:
[1] = mn = molality of the nth substance listed, in mol/kg; conditions: 100 kPa, Liquid; for viscosity: Capillary tube (Ostwald / Ubbelohde) method; for speed of sound: Frequency=3 MHz, Sing-around technique in a fixed-path interferometer; for mass density: Vibrating tube method
[2] = 100 kPa, Liquid, Capillary tube (Ostwald / Ubbelohde) method

O [water] + C[C@H](CCC(=O)[O-])[C@H]1CC[C@H]2[C@@H]3[C@H](O)C[C@@H]4C[C@H](O)CC[C@]4(C)[C@H]3C[C@H](O)[C@]12C.[Na+]
[1], m2 = 0
Conditions	mass density [kg/m3]	speed of sound [m/s]	viscosity [mPa·s]
293.15 K	–	–	1.002 ± 0.021
298.15 K	–	–	0.8903 ± 0.021
303.15 K	–	–	0.7973 ± 0.021
308.15 K	–	–	0.719 ± 0.021
313.15 K	–	1529.2 ± 1.3	0.6526 ± 0.021
318.15 K	990.256 ± 0.14	1536.5 ± 1.3	0.596 ± 0.021

NCC(=O)O [2-aminoacetic acid] + O
[1], m1 = 0.1
Conditions	mass density [kg/m3]	speed of sound [m/s]	viscosity [mPa·s]
293.15 K	1001.51 ± 0.27	1488.2 ± 1.7	1.016 ± 0.022
298.15 K	1000.32 ± 0.27	1502.2 ± 1.7	0.9031 ± 0.022
303.15 K	–	1514.4 ± 1.7	0.808 ± 0.021
308.15 K	–	1525 ± 1.7	0.7271 ± 0.021
313.15 K	995.401 ± 0.28	1533.9 ± 1.7	0.6645 ± 0.021
318.15 K	–	1541.3 ± 1.6	0.5988 ± 0.021

O [water] + C[C@H](CCC(=O)[O-])[C@H]1CC[C@H]2[C@@H]3CC[C@@H]4C[C@H](O)CC[C@]4(C)[C@H]3C[C@H](O)[C@]12C.[Na+]
[1], m2 = 0
Conditions	mass density [kg/m3]	speed of sound [m/s]	viscosity [mPa·s]
293.15 K	–	–	1.002 ± 0.021
298.15 K	–	–	0.8903 ± 0.021
303.15 K	–	–	0.7973 ± 0.021
308.15 K	–	–	0.719 ± 0.021
313.15 K	–	1529.2 ± 1.3	0.6526 ± 0.021
318.15 K	990.256 ± 0.15	1536.5 ± 1.3	0.596 ± 0.021

N[C@@H](Cc1c[nH]cn1)C(=O)O [L-histidine] + O
[1], m1 = 0.1
Conditions	mass density [kg/m3]	speed of sound [m/s]	viscosity [mPa·s]
293.15 K	1003.99 ± 0.27	1491.8 ± 1.7	1.052 ± 0.022
298.15 K	1002.8 ± 0.28	1505.3 ± 1.7	0.928 ± 0.022
303.15 K	1001.33 ± 0.28	1517.4 ± 1.7	0.8289 ± 0.021
308.15 K	999.656 ± 0.28	1527.6 ± 1.7	0.7447 ± 0.021
313.15 K	997.795 ± 0.28	1536.3 ± 1.7	0.6783 ± 0.021
318.15 K	995.765 ± 0.27	1543.8 ± 1.6	0.5915 ± 0.021

O [water]
[2]
Conditions	viscosity [mPa·s]
293.15 K	1.002 ± 0.021
298.15 K	0.8903 ± 0.021
303.15 K	0.7973 ± 0.021
308.15 K	0.719 ± 0.021
313.15 K	0.6526 ± 0.021
318.15 K	0.596 ± 0.021

CC(C)C[C@H](N)C(=O)O [L-leucine] + O
[1], m1 = 0.1
Conditions	mass density [kg/m3]	speed of sound [m/s]	viscosity [mPa·s]
293.15 K	1000.79 ± 0.27	1494.9 ± 1.7	1.06 ± 0.022
298.15 K	999.575 ± 0.27	1508.3 ± 1.7	0.9398 ± 0.022
303.15 K	998.115 ± 0.28	1520.2 ± 1.7	0.8362 ± 0.022
308.15 K	996.485 ± 0.28	1530.3 ± 1.7	0.7509 ± 0.021
313.15 K	994.559 ± 0.29	1538.8 ± 1.7	0.6801 ± 0.021
318.15 K	992.305 ± 0.28	1545.9 ± 1.6	0.6014 ± 0.021

CSCC[C@H](N)C(=O)O [L-methionine] + O
[1], m1 = 0.1
Conditions	mass density [kg/m3]	speed of sound [m/s]	viscosity [mPa·s]
293.15 K	1002.78 ± 0.43	1493 ± 1.9	1.034 ± 0.023
298.15 K	1001.58 ± 0.43	1506.7 ± 2	0.92 ± 0.022
303.15 K	1000.16 ± 0.44	1518.5 ± 1.9	0.8289 ± 0.022
308.15 K	998.461 ± 0.43	1528.7 ± 1.9	0.7461 ± 0.021
313.15 K	996.591 ± 0.43	1537 ± 1.9	0.6799 ± 0.021
318.15 K	994.572 ± 0.43	1544.2 ± 1.9	0.6105 ± 0.021
